Assays:
Angiogenin = Angiogenin (Homo sapiens, UniProt P03950); assay: Inhibition Kinetics with Angiogenin; settings: pH 6
Experimental: The assay was carried out in oligovinylsulfonic acid free 0.1 M Mes-NaOH buffer (pH 6.0) containing 0.1 M NaCl using substrate concentration from 20 to 122 nM. The concentration of compounds 2, 3, 4 and 5 ranged from 0 to 0.8, 0 to 1.2, 0 to 1.2 and 0 to 2.5 mM, respectively. The angiogenin concentration was 0.36 µM.

[1] = target: Ribonuclease pancreatic (Bos taurus) (UniProt P61823)
Ribonuclease pancreatic (Bos taurus), sequence (P61823 whole entry, looked up): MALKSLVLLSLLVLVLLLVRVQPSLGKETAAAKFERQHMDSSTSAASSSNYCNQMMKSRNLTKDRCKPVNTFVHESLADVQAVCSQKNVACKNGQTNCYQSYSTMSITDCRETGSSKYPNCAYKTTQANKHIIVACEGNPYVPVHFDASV

Angiogenin, sequence (P03950 whole entry): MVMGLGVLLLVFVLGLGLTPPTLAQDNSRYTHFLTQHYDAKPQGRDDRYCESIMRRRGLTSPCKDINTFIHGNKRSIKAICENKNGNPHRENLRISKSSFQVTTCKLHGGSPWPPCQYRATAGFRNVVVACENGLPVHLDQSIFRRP

Row | Ki (Angiogenin) | Ki [1] | SMILES
1 | 427 µM | 80 µM | Cc1cn([C@H]2C[C@@H](NC(=O)C(N)CO)[C@@H](CO)O2)c(=O)[nH]c1=O (stereo partly drawn) [Ser-aT (Compound 2)]
2 | 1110 µM | 380 µM | Cc1cn([C@H]2C[C@@H](NC(=O)CC(=O)O)[C@@H](CO)O2)c(=O)[nH]c1=O [N-[2-Hydroxymethyl-5-(5-methyl-2,4-dioxo-3,4-dihydro-2H-pyrimidin-1-yl)-tetrahydro-furan-3-yl]-malonamic acid (Compound 6)]
3 | 775 µM | 132 µM | Cc1cn([C@H]2C[C@@H](NC(=O)C(=O)O)[C@@H](CO)O2)c(=O)[nH]c1=O [N-[2-Hydroxymethyl-5-(5-methyl-2,4-dioxo-3,4-dihydro-2H-pyrimidin-1-yl)-tetrahydro-furan-3-yl]-oxalamic acid (Compound 5)]
4 | 1250 µM | 451 µM | Cc1cn([C@H]2C[C@@H](NC(=O)C(N)Cc3ccc(O)cc3)[C@@H](CO)O2)c(=O)[nH]c1=O (stereo partly drawn) [Tyr-aT (Compound 3)]
